Laboratory results published in patent US20250275540A1, “USE OF PROTOPORPHYRINOGEN OXIDASE” (BEIJING DABEINONG BIOTECHNOLOGY CO., LTD., priority 2022, published 2025).

System: transgenic maize plants
Experiment: Detection of the herbicide tolerance of the transgenic maize plants
Type: in vivo
Details: for The grade of pesticide damage/plant: 0 / The grade of pesticide damage/plant: 1 / The grade of pesticide damage/plant: 2 / The grade of pesticide damage/plant: 3: 7 DAT
Text: The transformed Arabidopsis thaliana T1 plants were initially selected using glufosinate herbicide. The Arabidopsis thaliana T1 plants (PPOA-01) into which the PPOA-01 nucleotide sequence was introduced, the Arabidopsis thaliana T1 plants (PPOB-01) into which the PPOB-01 nucleotide sequence was introduced, the Arabidopsis thaliana T1 plants (PPOC-01) into which the PPOC-01 nucleotide sequence was introduced, the Arabidopsis thaliana T1 plants (PPOD-01) into which the PPOD-01 nucleotide sequence was introduced, the Arabidopsis thaliana T1 plants (PPOE-01) into which the PPOE-01 nucleotide sequence was introduced, the Arabidopsis thaliana T1 plants (PPOF-01) into which the PPOF-01 nucleotide sequence was introduced, the Arabidopsis thaliana T1 plants (PPO-AP-01) into which the PPO-AP-01 nucleotide sequence was introduced, and the Arabidopsis thaliana T1 plants (control vector) into which the control vector was introduced, the wild-type Arabidopsis thaliana plants (CK) (with 24 plants being included in each genotype) (18 days after sowing) were sprayed with saflufenacil at three concentrations (25 g ai/ha (one-fold field concentration, 1×), 100 g ai/ha (four-fold field concentration, 4×), and 0 g ai/ha (water, 0×)), oxyfluorfen at three concentrations (180 g ai/ha (one-fold field concentration, 1×), 720 g ai/ha (four-fold field concentration, 4×), and 0 g ai/ha (water, 0×)), and flumioxazin at three concentrations (60 g ai/ha (one-fold field concentration, 1×), 240 g ai/ha (four-fold field concentration, 4×), and 0 g ai/ha (water, 0×) to determine the tolerance of Arabidopsis thaliana to the herbicides. After 7 days of spraying (7 DAT), the damage level of each plant caused by the herbicide was evaluated according to the average of the damage levels (%) of plants (the average of the damage levels (%) of plants=the injured leaf area/the total leaf area×100%), i.e., the grade of pesticide damage: grade 0 means that the growth status of plants is essentially consistent with those sprayed with the blank solvent (water); grade 1 means that the average of the damage levels of plants is less than 10%; grade 2 means that the average of the damage levels of plants is greater than 10%; and grade 3 means that the average of the damage levels of plants is 100%. The plants having a growth status falling within grades 0 and 1 are classified as highly resistant plants; those having a growth status falling within grade 2 are classified as poorly resistant plants; and those having a growth status falling within grade 3 are classified as non-resistant plants.
The maize plants into which the PPOA-02 nucleotide sequence was introduced, the maize plants into which the PPOB-02 nucleotide sequence was introduced, the maize plants into which the PPOC-02 nucleotide sequence was introduced, the maize plants into which the PPOD-02 nucleotide sequence was introduced, the maize plants into which the PPOE-02 nucleotide sequence was introduced, the maize plants into which the PPOF-02 nucleotide sequence was introduced, the maize plants into which the PPO-AP-02 nucleotide sequence was introduced, the maize plants (control vector) into which the control vector was introduced, and the wild-type maize plants (CK) (with 16 plants being included in each genotype) (18 days after sowing) were taken and sprayed with saflufenacil at three concentrations (50 g ai/ha (two-fold field concentration, 2×), 100 g ai/ha (four-fold field concentration, 4×), and 0 g ai/ha (water, 0×)), oxyfluorfen at three concentrations (360 g ai/ha (two-fold field concentration, 2×), 720 g ai/ha (four-fold field concentration, 4×), and 0 g ai/ha (water, 0×), and flumioxazin at three concentrations (120 g ai/ha (two-fold field concentration, 2×), 240 g ai/ha (four-fold field concentration, 4×), and 0 g ai/ha (water, 0×) to determine the tolerance of maize plants to the herbicides. […]

[1] = genotype Control vector, 120 g ai/ha
[2] = genotype Control vector, 240 g ai/ha
[3] = genotype PPO-AP-02, 120 g ai/ha
[4] = genotype PPO-AP-02, 240 g ai/ha

C#CCN1C(=O)COc2cc(F)c(N3C(=O)C4=C(CCCC4)C3=O)cc21 [flumioxazin, 2-[7-fluoro-3,4-dihydro-3-oxo-4-(2-propynyl)-2H-1,4-benzoxazin-6-yl]-4,5,6,7-tetrahydro-1H-isoindole-1,3(2H)-dione]
The grade of pesticide damage/plant: 0 (genotype CK, 120 g ai/ha): 0 plant
The grade of pesticide damage/plant: 1 (genotype CK, 120 g ai/ha): 0 plant
The grade of pesticide damage/plant: 2 (genotype CK, 120 g ai/ha): 0 plant
The grade of pesticide damage/plant: 3 (genotype CK, 120 g ai/ha): 16 plant
The grade of pesticide damage/plant: 0 (genotype CK, 240 g ai/ha): 0 plant
The grade of pesticide damage/plant: 1 (genotype CK, 240 g ai/ha): 0 plant
The grade of pesticide damage/plant: 2 (genotype CK, 240 g ai/ha): 0 plant
The grade of pesticide damage/plant: 3 (genotype CK, 240 g ai/ha): 16 plant
The grade of pesticide damage/plant: 0 [1]: 0 plant
The grade of pesticide damage/plant: 1 [1]: 0 plant
The grade of pesticide damage/plant: 2 [1]: 0 plant
The grade of pesticide damage/plant: 3 [1]: 16 plant
The grade of pesticide damage/plant: 0 [2]: 0 plant
The grade of pesticide damage/plant: 1 [2]: 0 plant
The grade of pesticide damage/plant: 2 [2]: 0 plant
The grade of pesticide damage/plant: 3 [2]: 16 plant
The grade of pesticide damage/plant: 0 [3]: 0 plant
The grade of pesticide damage/plant: 1 [3]: 0 plant
The grade of pesticide damage/plant: 2 [3]: 3 plant
The grade of pesticide damage/plant: 3 [3]: 13 plant
The grade of pesticide damage/plant: 0 [4]: 0 plant
The grade of pesticide damage/plant: 1 [4]: 0 plant
The grade of pesticide damage/plant: 2 [4]: 0 plant
The grade of pesticide damage/plant: 3 [4]: 16 plant
tolerance to the herbicide (in words) (genotype PPO-AP-02, at different concentrations): basically no tolerance
The grade of pesticide damage/plant: 0 (genotype PPOA-02, 120 g ai/ha): 16 plant
The grade of pesticide damage/plant: 1 (genotype PPOA-02, 120 g ai/ha): 0 plant
The grade of pesticide damage/plant: 2 (genotype PPOA-02, 120 g ai/ha): 0 plant
The grade of pesticide damage/plant: 3 (genotype PPOA-02, 120 g ai/ha): 0 plant
The grade of pesticide damage/plant: 0 (genotype PPOA-02, 240 g ai/ha): 16 plant
The grade of pesticide damage/plant: 1 (genotype PPOA-02, 240 g ai/ha): 0 plant
The grade of pesticide damage/plant: 2 (genotype PPOA-02, 240 g ai/ha): 0 plant
The grade of pesticide damage/plant: 3 (genotype PPOA-02, 240 g ai/ha): 0 plant
The grade of pesticide damage/plant: 0 (genotype PPOB-02, 120 g ai/ha): 16 plant
The grade of pesticide damage/plant: 1 (genotype PPOB-02, 120 g ai/ha): 0 plant
The grade of pesticide damage/plant: 2 (genotype PPOB-02, 120 g ai/ha): 0 plant
The grade of pesticide damage/plant: 3 (genotype PPOB-02, 120 g ai/ha): 0 plant
The grade of pesticide damage/plant: 0 (genotype PPOB-02, 240 g ai/ha): 16 plant
The grade of pesticide damage/plant: 1 (genotype PPOB-02, 240 g ai/ha): 0 plant
The grade of pesticide damage/plant: 2 (genotype PPOB-02, 240 g ai/ha): 0 plant
The grade of pesticide damage/plant: 3 (genotype PPOB-02, 240 g ai/ha): 0 plant
The grade of pesticide damage/plant: 0 (genotype PPOC-02, 120 g ai/ha): 16 plant
The grade of pesticide damage/plant: 1 (genotype PPOC-02, 120 g ai/ha): 0 plant
The grade of pesticide damage/plant: 2 (genotype PPOC-02, 120 g ai/ha): 0 plant
The grade of pesticide damage/plant: 3 (genotype PPOC-02, 120 g ai/ha): 0 plant
The grade of pesticide damage/plant: 0 (genotype PPOC-02, 240 g ai/ha): 16 plant
The grade of pesticide damage/plant: 1 (genotype PPOC-02, 240 g ai/ha): 0 plant
The grade of pesticide damage/plant: 2 (genotype PPOC-02, 240 g ai/ha): 0 plant
The grade of pesticide damage/plant: 3 (genotype PPOC-02, 240 g ai/ha): 0 plant
The grade of pesticide damage/plant: 0 (genotype PPOD-02, 120 g ai/ha): 16 plant
The grade of pesticide damage/plant: 1 (genotype PPOD-02, 120 g ai/ha): 0 plant
The grade of pesticide damage/plant: 2 (genotype PPOD-02, 120 g ai/ha): 0 plant
The grade of pesticide damage/plant: 3 (genotype PPOD-02, 120 g ai/ha): 0 plant
The grade of pesticide damage/plant: 0 (genotype PPOD-02, 240 g ai/ha): 16 plant
The grade of pesticide damage/plant: 1 (genotype PPOD-02, 240 g ai/ha): 0 plant
The grade of pesticide damage/plant: 2 (genotype PPOD-02, 240 g ai/ha): 0 plant
The grade of pesticide damage/plant: 3 (genotype PPOD-02, 240 g ai/ha): 0 plant
The grade of pesticide damage/plant: 0 (genotype PPOE-02, 120 g ai/ha): 16 plant
The grade of pesticide damage/plant: 1 (genotype PPOE-02, 120 g ai/ha): 0 plant
The grade of pesticide damage/plant: 2 (genotype PPOE-02, 120 g ai/ha): 0 plant
The grade of pesticide damage/plant: 3 (genotype PPOE-02, 120 g ai/ha): 0 plant
The grade of pesticide damage/plant: 0 (genotype PPOE-02, 240 g ai/ha): 16 plant
The grade of pesticide damage/plant: 1 (genotype PPOE-02, 240 g ai/ha): 0 plant
The grade of pesticide damage/plant: 2 (genotype PPOE-02, 240 g ai/ha): 0 plant
The grade of pesticide damage/plant: 3 (genotype PPOE-02, 240 g ai/ha): 0 plant
The grade of pesticide damage/plant: 0 (genotype PPOF-02, 120 g ai/ha): 16 plant
The grade of pesticide damage/plant: 1 (genotype PPOF-02, 120 g ai/ha): 0 plant
The grade of pesticide damage/plant: 2 (genotype PPOF-02, 120 g ai/ha): 0 plant
The grade of pesticide damage/plant: 3 (genotype PPOF-02, 120 g ai/ha): 0 plant
The grade of pesticide damage/plant: 0 (genotype PPOF-02, 240 g ai/ha): 16 plant
The grade of pesticide damage/plant: 1 (genotype PPOF-02, 240 g ai/ha): 0 plant
The grade of pesticide damage/plant: 2 (genotype PPOF-02, 240 g ai/ha): 0 plant
The grade of pesticide damage/plant: 3 (genotype PPOF-02, 240 g ai/ha): 0 plant
tolerance to the herbicide (in words) (genotypes PPOA-02 to PPOF-02, at different concentrations): high-resistant tolerance
